From patent US12533341B2, “Small molecule inhibitors of voltage-gated sodium channel 1.7 and methods of using same” (Duke University, priority 2019, dated 2026)
Entries after “also recorded” stand apart in the source; their conditions may differ.

How the values were obtained:
[1] = test system: histamine-induced acute itch; test: Histamine-induced itch model; assay type: in vivo, mouse; conditions: listed as DA-0218
Procedure: Itch behavior was tested blindly. Mice were habituated to the testing environment daily for at least two days before testing. Animals were shaved at the back of the neck in an area of approximately 15×10 mm on the day before the injection of pruritic agent. Animals were put in small plastic chambers (14×18×12 cm) on an elevated metal mesh floor and allowed 30 min for habituation before examination. Mice were then briefly removed from the chamber and given an intradermal injection (50 μL) of 500 μg of histamine in the nape of the neck. After the injection, mouse behaviors were video-recorded and the number of scratches in every 5 min for 30 min was counted. A scratch was counted when a mouse lifted its hindpaw to scratch the shaved region and returned the paw to the floor or to the mouth.

[2] = biological target: human Nav1.7 (Homo sapiens, UniProt Q15858); test: Whole-cell patch-clamp of sodium currents in Nav1.7-expressing HEK293 cells; assay type: cell-based
human Nav1.7, sequence (Q15858 whole entry): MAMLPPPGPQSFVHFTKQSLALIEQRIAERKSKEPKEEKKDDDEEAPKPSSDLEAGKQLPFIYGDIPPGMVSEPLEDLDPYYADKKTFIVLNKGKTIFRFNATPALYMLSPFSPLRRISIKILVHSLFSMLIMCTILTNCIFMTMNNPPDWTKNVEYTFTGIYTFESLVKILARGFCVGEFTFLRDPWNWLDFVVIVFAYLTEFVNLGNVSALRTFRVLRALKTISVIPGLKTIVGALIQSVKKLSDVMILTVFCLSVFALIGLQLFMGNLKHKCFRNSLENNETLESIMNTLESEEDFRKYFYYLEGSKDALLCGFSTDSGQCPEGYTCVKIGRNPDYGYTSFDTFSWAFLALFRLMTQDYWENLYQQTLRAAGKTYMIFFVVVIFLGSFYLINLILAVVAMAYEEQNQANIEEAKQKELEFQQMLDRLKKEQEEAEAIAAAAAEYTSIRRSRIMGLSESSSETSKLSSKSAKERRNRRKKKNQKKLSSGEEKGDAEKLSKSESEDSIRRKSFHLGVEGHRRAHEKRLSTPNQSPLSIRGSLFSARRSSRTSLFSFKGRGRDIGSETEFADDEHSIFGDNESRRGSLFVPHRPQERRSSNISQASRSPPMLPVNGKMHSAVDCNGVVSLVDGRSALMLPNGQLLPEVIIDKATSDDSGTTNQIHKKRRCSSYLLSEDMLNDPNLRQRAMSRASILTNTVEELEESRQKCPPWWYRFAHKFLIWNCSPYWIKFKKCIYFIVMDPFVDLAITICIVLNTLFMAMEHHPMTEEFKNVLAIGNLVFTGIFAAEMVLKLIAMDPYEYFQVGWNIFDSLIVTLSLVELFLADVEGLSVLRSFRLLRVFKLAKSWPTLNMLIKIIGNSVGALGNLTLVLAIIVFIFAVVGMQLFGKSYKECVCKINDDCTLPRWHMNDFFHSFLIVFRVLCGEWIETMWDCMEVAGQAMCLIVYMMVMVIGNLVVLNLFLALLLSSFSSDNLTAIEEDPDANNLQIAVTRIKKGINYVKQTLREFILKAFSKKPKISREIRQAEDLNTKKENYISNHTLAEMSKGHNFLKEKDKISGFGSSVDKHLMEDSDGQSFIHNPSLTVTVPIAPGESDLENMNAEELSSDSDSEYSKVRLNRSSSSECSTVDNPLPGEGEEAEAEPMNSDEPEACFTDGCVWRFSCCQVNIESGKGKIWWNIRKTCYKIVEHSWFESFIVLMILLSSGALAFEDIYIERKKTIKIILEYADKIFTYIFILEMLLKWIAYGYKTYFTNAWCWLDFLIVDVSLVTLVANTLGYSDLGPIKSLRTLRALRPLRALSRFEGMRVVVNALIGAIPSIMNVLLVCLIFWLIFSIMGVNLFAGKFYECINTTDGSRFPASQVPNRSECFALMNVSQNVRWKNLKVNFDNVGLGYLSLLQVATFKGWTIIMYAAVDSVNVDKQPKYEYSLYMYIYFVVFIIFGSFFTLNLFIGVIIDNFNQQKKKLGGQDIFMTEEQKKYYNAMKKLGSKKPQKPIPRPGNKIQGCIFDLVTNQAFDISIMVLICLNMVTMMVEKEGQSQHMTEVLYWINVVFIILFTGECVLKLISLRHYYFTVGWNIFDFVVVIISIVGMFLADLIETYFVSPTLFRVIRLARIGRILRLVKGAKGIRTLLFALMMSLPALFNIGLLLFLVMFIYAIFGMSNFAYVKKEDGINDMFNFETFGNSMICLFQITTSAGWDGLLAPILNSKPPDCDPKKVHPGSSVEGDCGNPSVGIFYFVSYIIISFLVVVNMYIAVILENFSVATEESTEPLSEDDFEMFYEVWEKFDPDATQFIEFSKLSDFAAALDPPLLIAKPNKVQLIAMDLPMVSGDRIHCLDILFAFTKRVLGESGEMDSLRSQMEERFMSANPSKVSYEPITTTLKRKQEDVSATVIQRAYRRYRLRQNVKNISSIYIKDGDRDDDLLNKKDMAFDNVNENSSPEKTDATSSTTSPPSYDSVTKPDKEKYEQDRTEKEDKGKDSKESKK
Procedure: HEK-hNav1.7 stable cell line was purchased from SB Drug Discovery (Glasgow, United Kingdom). Human embryonic kidney 293 (HEK293) cells were obtained from the ATCC and maintained at the Duke cell culture facility. Cells were cultured in high-glucose (4.5 g/L) DMEM containing 10% (v/v) FBS (Gibco) and streptomycin/penicillin. For Nav1.7-expressing HEK293 cells, an additional antibiotic, blasticidin, was included. hNav1.5 transfection was performed by Lipofectamine 2000 at 70% confluence using 2 μg cDNA. The transfected cells were cultured in the same growth medium for 48 h before biochemical or electrophysiological studies.
Whole-cell patch-clamp recordings were conducted at room temperature. Patch pipettes pulled from borosilicate capillaries (World Precision Instruments, Inc., Sarasota, FL) were used to record transient Na currents with an Axopatch-200B amplifier with a Digidata 1440A (Axon Instruments, Sunnyvale CA). The resistance was set to 3-4 MΩ when filled with pipette solution. The pipette solution contained (in mmol/L): CsCl 130, NaCl 9, MgCl2 1, EGTA 10, HEPES 10, adjusted to pH 7.3 with CsOH. The external solution for recording transient Na^+ currents contained (in mmol/L): NaCl 131, TEACl 10, CsCl 10, CaCl2) 1, MgCl2 2, CdCl2 0.3, 4-aminopyridine 3, HEPES 10, glucose 10, adjusted to pH 7.4 with NaOH. The recording chamber (300 μL) was continuously superfused at 3-4 mL/min. Series resistance was compensated (>80%) and leak subtraction was performed. Data were low-pass-filtered at 2 kHz and sampled at 10 kHz. pClamp10 (Axon Instruments) software was used during experiments and analysis. In voltage-clamp experiments, transient Na+ currents were evoked by a test pulse to 0 mV from the holding potential (−70 mV).
The effects of the 9 selected compounds on Nav1.7 channel activities were tested using patch-clamp recordings on human Nav1.7 expressing HEK293 cells (FIG. 3, FIG. 4). In each cell, sodium currents were recorded for 13 min, and candidate inhibitors (10 μM) were incubated for 2 min after 2 min baseline recording (FIG. 3). Compound was applied at the beginning of the second minute for two minutes (denoted as a horizontal line above the X-axis). Sodium currents were recorded at equal intervals (every 20 seconds, 40 recordings per compound per cell). Data was analyzed with a two-way repeated measures ANOVA, followed by a post-hoc test of the last timepoint Bonferroni-corrected for 9 pairwise comparisons (each compound was compared with control). […] Sample size n=3 to 7 cells per group.
For FIG. 4C, sample size was n=5 to 7 cells per group. Compound was applied at the beginning of the second minute for two minutes (denoted as a horizontal line above the X-axis). Sodium currents were recorded every 20 seconds.

- difference in relative current from the control group at the last measurement ([2]; 0.01 μM, dose-response (FIG. 4), not significant): 0.13
- difference in relative current from the control group at the last measurement ([2]; 0.1 μM, dose-response (FIG. 4)): 0.27
- inhibition of sodium currents vs. control ([2]; 1 μM): 47%
- difference in relative current from the control group at the last measurement ([2]; 1 μM, dose-response (FIG. 4)): 0.47
- difference in relative current from the control group at the last measurement ([2]; 10 μM, dose-response (FIG. 4)): 0.76
- difference in relative current from the control group at the last measurement ([2]; 10 μM, screen of compounds 1-9 (FIG. 3)): 0.71
- IC50 ([2]; Nav1.7-expressing HEK293 cells, dose-response, read-out: 50% inhibition concentration (IC50)): 740 nM
SMILES: O=C(CC(c1cccc(Oc2ccccc2)c1)c1cn(Cc2ccccc2)c2ccccc12)NCCN1CCCC1 (stereo not drawn) [Compound 9, 3-(1-benzyl-1H-indol-3-yl)-3-(3-phenoxyphenyl)-N-(2-(pyrrolidin-1-yl)ethyl)propanamide]
- effect on histamine-induced scratches ([1]; intrathecal 30 nmol, 500 μg histamine intradermal, 30 min): statistically significant reduction; also recorded: effective against histamine-induced itch
- effect on histamine-induced scratch bouts ([1]; intrathecal, dose response): inhibited histamine-induced acute itch; also recorded: dose-dependent reduction
